In paper PMC12197678, “Cvill6 and Cvill7: Potent and Selective Peptide Blockers of Kv1.2 Ion Channel Isolated from Mexican Scorpion Centruroides villegasi” (Toxins, 2025):
Like-named read-outs stand apart in the source and are kept apart here. Positions of bridges follow the written chain, without caps; N, C: chain ends. Residues, ends and D or L forms follow the SMILES beside them.

Legend:
hKv1.5 = type: cell-based, human; conditions: 100 nM; ~3 min
Description: (§1) For current recordings, Kv1.1, Kv1.2, and Kv1.5 were transiently expressed in CHO cells while for Kv11.1 a stable HEK293 cell line was used. To record Kv1.3 currents human peripheral T lymphocytes were activated with Phytohemagglutinin A (PHA) to boost Kv1.3 expression and Ca^2+-free intracellular solution to prevent the KCa3.1 channel opening. […] Appropriate voltage protocols were applied to record the K^+ currents from voltage-clamped cells in whole-cell configurations. Toxins were freshly dissolved in the bath solution supplemented with 0.1 mg/mL BSA and applied to the patched cells via a gravity-fed micro-perfusion system with an approximate flow rate of 200 µL/min.
Chinese hamster ovary (CHO) cells (generously provided by Yosef Yarden, Weizmann Institute of Science, Rehovot, Israel) or human embryonic kidney (HEK293) cells were cultured and maintained in Dulbecco’s modified Eagle medium (DMEM, Thermo Fisher Scientific, Waltham, MA, USA) supplemented with 2 mM L-glutamine, 10% fetal bovine serum (FBS), 100 µg/mL streptomycin, and 100 U/mL penicillin-g (Sigma-Aldrich, Budapest, Hungary) following standard culturing conditions [52]. For transient expression of ion channels, CHO cells were transfected using the Lipofectamine 2000 kit (Invitrogen, Waltham, MA, USA) following the manufacturer’s instructions with plasmids encoding specific ion channels, including hKv1.1 (KCNA1 gene), hKv1.2 (KCNA2 gene), and hKv1.5 (KCNA5 gene) in a pCMV6-AC-GFP vector (OriGene Technologies), hKCa2.2 (KCNN2 gene) in a pCDN3 plasmid (for this transfection a GFP containing plasmid was co-transfected, courtesy of Bernard Attali, Tel Aviv University, Tel Aviv, Israel), and hKCa3.1 (KCNN4 gene) in a pEGFP-C1 vector (a kind gift by H. Wulff, University of California, Davis, CA, USA). […] Electrophysiological recordings were typically conducted 24 to 48 h after transfection. […]
Whole-cell currents were recorded using the patch-clamp technique in voltage-clamp mode, following standard protocols [73]. […]

hKv1.1 = molecular target: T1, hKv1.1 (Homo sapiens, UniProt Q09470); test: cell-based; type: cell-based; conditions: 100 nM
T1 construct: host or cells: CHO cells, transient transfection (Lipofectamine 2000)
Description: as §1
(§2) Chinese hamster ovary (CHO) cells (generously provided by Yosef Yarden, Weizmann Institute of Science, Rehovot, Israel) or human embryonic kidney (HEK293) cells were cultured and maintained in Dulbecco’s modified Eagle medium (DMEM, Thermo Fisher Scientific, Waltham, MA, USA) supplemented with 2 mM L-glutamine, 10% fetal bovine serum (FBS), 100 µg/mL streptomycin, and 100 U/mL penicillin-g (Sigma-Aldrich, Budapest, Hungary) following standard culturing conditions [52]. For transient expression of ion channels, CHO cells were transfected using the Lipofectamine 2000 kit (Invitrogen, Waltham, MA, USA) following the manufacturer’s instructions with plasmids encoding specific ion channels, including hKv1.1 (KCNA1 gene), hKv1.2 (KCNA2 gene), and hKv1.5 (KCNA5 gene) in a pCMV6-AC-GFP vector (OriGene Technologies), hKCa2.2 (KCNN2 gene) in a pCDN3 plasmid (for this transfection a GFP containing plasmid was co-transfected, courtesy of Bernard Attali, Tel Aviv University, Tel Aviv, Israel), and hKCa3.1 (KCNN4 gene) in a pEGFP-C1 vector (a kind gift by H. Wulff, University of California, Davis, CA, USA). […] Electrophysiological recordings were typically conducted 24 to 48 h after transfection.
(§3) Whole-cell currents were recorded using the patch-clamp technique in voltage-clamp mode, following standard protocols [73]. […] Micropipettes were made from GC150F-7.5 borosilicate capillaries (Harvard Apparatus Co., Holliston, MA, USA) using a Sutter P2000 laser puller with tip resistance generally ranging from 3–6 MΩ in the bath solution. Only recordings with a leak current at the holding potential (Vh) of <10% of the peak current at the test potential were included in the data analysis. All recordings were performed at room temperature (20–25 °C). Control and test solutions were perfused to the cells via a gravity-driven micro-perfusion system and AutoMate Perfusion Pencil Multi-Barrel Manifold Tip (AutoMate Scientific, Berkeley, CA, USA), with an approximate flow rate of 200 µL/min, and the excess amount of bath solution was continuously removed from the recording chamber using vacuum suction.
(§4) The duration of depolarization pulses was 15 ms for Kv1.3 and 50 ms for Kv1.1 and Kv1.5. However, for Kv1.2, 15–500 ms-long pulses were used to achieve the saturated peak current due to the variable activation kinetics of this channel [74].

hKv11.1 (hERG1) = test: Whole-cell patch-clamp, hKv11.1 current in stable HEK293 cells; type: cell-based, human; conditions: 100 nM; ~3 min
Description: Appropriate voltage protocols were applied to record the K^+ currents from voltage-clamped cells in whole-cell configurations. Toxins were freshly dissolved in the bath solution supplemented with 0.1 mg/mL BSA and applied to the patched cells via a gravity-fed micro-perfusion system with an approximate flow rate of 200 µL/min.
HEK 293 cells stably expressing mKCa1.1 1 (BKCa, Kcnma1 gene, generously provided by C. Beeton from Baylor College of Medicine, Houston, TX, USA) or hKv11.1 (hERG1, KCNH2 gene, gifted by H. Wulff from University of California, Davis, CA, USA) were utilized in this study.
Whole-cell currents were recorded using the patch-clamp technique in voltage-clamp mode, following standard protocols [73]. […] Micropipettes were made from GC150F-7.5 borosilicate capillaries (Harvard Apparatus Co., Holliston, MA, USA) using a Sutter P2000 laser puller with tip resistance generally ranging from 3–6 MΩ in the bath solution. Only recordings with a leak current at the holding potential (Vh) of <10% of the peak current at the test potential were included in the data analysis. All recordings were performed at room temperature (20–25 °C). […]

hKCa3.1 (IKCa1, SK4) = molecular target: T2, hKCa3.1 (IKCa1, SK4) (Homo sapiens, UniProt O15554); test: Whole-cell patch-clamp, hKCa3.1 current in transfected CHO cells; type: cell-based
T2 construct: expressed in transfected cells; host or cells: CHO cells, transient transfection (Lipofectamine 2000); plasmid a gift of H. Wulff
Description: The scorpion toxins from the α-KTx 2 family also modulate the function of Ca^2+-activated potassium channels, in addition to Kv1 channels. Therefore, we investigated the activity of Cvill6 and Cvill7 toxins on three different types of Ca^2+-activated K^+ channels: (1) hKCa2.2 (SK2), the small-conductance Ca^2+-activated channel; (2) hKCa3.1 (IKCa1, SK4), the intermediate-conductance Ca^2+-activated channels, mainly expressed in T lymphocytes; and (3) mKCa1.1 (BK or MaxiK), the large-conductance voltage- and Ca^2+- activated channel of mice. Appropriate depolarization protocols were applied to record the K^+ current through respective KCa channels as shown in the inset of each panel in Figure 6A–C. […] Cvill6 reduced ~40% of the KCa3.1 current (Figure 6C), where the RCF value was 0.73 ± 0.05 (n = 5) at 100 nM (Figure 6D). On the other hand, Cvill7 inhibited ~25% of the current at the same concentration (Figure 6C), with an RCF value 0.84 ± 0.03 (n = 5) (Figure 6D). The time course of inhibition of KCa3.1 currents at 100 nM of Cvill6 or Cvill7 is shown in Figure 6E and Figure 6F, respectively. The normalized peak currents (see Section 2.4 or Section 5 for details) for individual cells (n = 5) were averaged at each time point and plotted as a function of time. […] The recovery from the block with Cvill6 to the initial peak current occurred in 4–5 consecutive traces (~0.8 min) and in the case of Cvill7 it took only 2–3 consecutive traces (~0.5 min) after perfusing the cell with toxin-lacking solution. […] The quantity of native toxins was insufficient to conduct the full dose–response curves at this high concentration range (see above).
Chinese hamster ovary (CHO) cells (generously provided by Yosef Yarden, Weizmann Institute of Science, Rehovot, Israel) or human embryonic kidney (HEK293) cells were cultured and maintained in Dulbecco’s modified Eagle medium (DMEM, Thermo Fisher Scientific, Waltham, MA, USA) supplemented with 2 mM L-glutamine, 10% fetal bovine serum (FBS), 100 µg/mL streptomycin, and 100 U/mL penicillin-g (Sigma-Aldrich, Budapest, Hungary) following standard culturing conditions. For transient expression of ion channels, CHO cells were transfected using the Lipofectamine 2000 kit (Invitrogen, Waltham, MA, USA) following the manufacturer’s instructions with plasmids encoding specific ion channels, including hKv1.1 (KCNA1 gene), hKv1.2 (KCNA2 gene), and hKv1.5 (KCNA5 gene) in a pCMV6-AC-GFP vector (OriGene Technologies), hKCa2.2 (KCNN2 gene) in a pCDN3 plasmid (for this transfection a GFP containing plasmid was co-transfected, courtesy of Bernard Attali, Tel Aviv University, Tel Aviv, Israel), and hKCa3.1 (KCNN4 gene) in a pEGFP-C1 vector (a kind gift by H. Wulff, University of California, Davis, CA, USA). Cells expressing GFP were identified using a Nikon TE 2000U fluorescence microscope (Nikon, Tokyo, Japan) with bandpass filters set to 455–495 nm for excitation and 515–555 nm for emission. Electrophysiological recordings were typically conducted 24 to 48 h after transfection.
The extracellular solution (bath solution) for both Kv and KCa channels consisted of 145 mM NaCl, 5 mM KCl, 2.5 mM CaCl2, 1 mM MgCl2, 10 mM HEPES, and 5.5 mM glucose, pH 7.35, and osmolarity between 302 and 308 mOsM/L. For positive control solutions containing various concentrations of tetraethylammoniums (TEA^+), Na^+ was substituted with TEA-Cl in equimolar concentration in the bath solution and all other ingredients remained unchanged. To avoid toxin adsorption onto the plastic surfaces of the perfusion system, 0.1 mg/mL of bovine serum albumin (BSA, Sigma-Aldrich, Budapest, Hungary) was also added into all bath solutions prior to the patch-clamp assay. […]

hKCa2.2 (SK2) = test: Whole-cell patch-clamp, hKCa2.2 current in transfected CHO cells; type: cell-based, human; conditions: 100 nM; ~3 min
Description: The scorpion toxins from the α-KTx 2 family also modulate the function of Ca^2+-activated potassium channels, in addition to Kv1 channels. Therefore, we investigated the activity of Cvill6 and Cvill7 toxins on three different types of Ca^2+-activated K^+ channels: (1) hKCa2.2 (SK2), the small-conductance Ca^2+-activated channel; (2) hKCa3.1 (IKCa1, SK4), the intermediate-conductance Ca^2+-activated channels, mainly expressed in T lymphocytes; and (3) mKCa1.1 (BK or MaxiK), the large-conductance voltage- and Ca^2+- activated channel of mice. […] The quantity of native toxins was insufficient to conduct the full dose–response curves at this high concentration range (see above).
Chinese hamster ovary (CHO) cells (generously provided by Yosef Yarden, Weizmann Institute of Science, Rehovot, Israel) or human embryonic kidney (HEK293) cells were cultured and maintained in Dulbecco’s modified Eagle medium (DMEM, Thermo Fisher Scientific, Waltham, MA, USA) supplemented with 2 mM L-glutamine, 10% fetal bovine serum (FBS), 100 µg/mL streptomycin, and 100 U/mL penicillin-g (Sigma-Aldrich, Budapest, Hungary) following standard culturing conditions. […] Cells expressing GFP were identified using a Nikon TE 2000U fluorescence microscope (Nikon, Tokyo, Japan) with bandpass filters set to 455–495 nm for excitation and 515–555 nm for emission. […]

hKv1.2 = molecular target: T3, hKv1.2 (Homo sapiens, UniProt P16389); test: Whole-cell patch-clamp, hKv1.2 current in transiently transfected CHO cells; type: cell-based; conditions: for inhibition at 0.001 µM: 1 nM
T3 construct: host or cells: CHO cells, transient transfection (Lipofectamine 2000)
T3 sequence (P16389 whole entry): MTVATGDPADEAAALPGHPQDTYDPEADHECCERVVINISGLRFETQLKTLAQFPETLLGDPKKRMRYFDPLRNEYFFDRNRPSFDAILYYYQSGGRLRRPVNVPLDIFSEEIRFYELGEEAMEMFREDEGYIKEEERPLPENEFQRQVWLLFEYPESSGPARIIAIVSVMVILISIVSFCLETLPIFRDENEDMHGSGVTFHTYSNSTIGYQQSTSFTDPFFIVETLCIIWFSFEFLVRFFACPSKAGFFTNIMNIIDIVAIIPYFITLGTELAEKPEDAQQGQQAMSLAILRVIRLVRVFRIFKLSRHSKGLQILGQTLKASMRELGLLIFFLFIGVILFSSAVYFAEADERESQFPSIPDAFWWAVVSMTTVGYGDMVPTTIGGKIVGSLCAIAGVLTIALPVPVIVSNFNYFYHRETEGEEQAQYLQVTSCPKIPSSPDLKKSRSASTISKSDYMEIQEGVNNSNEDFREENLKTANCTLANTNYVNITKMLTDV
Description: as §1, §2, §3, §4

T2 sequence (O15554 whole entry): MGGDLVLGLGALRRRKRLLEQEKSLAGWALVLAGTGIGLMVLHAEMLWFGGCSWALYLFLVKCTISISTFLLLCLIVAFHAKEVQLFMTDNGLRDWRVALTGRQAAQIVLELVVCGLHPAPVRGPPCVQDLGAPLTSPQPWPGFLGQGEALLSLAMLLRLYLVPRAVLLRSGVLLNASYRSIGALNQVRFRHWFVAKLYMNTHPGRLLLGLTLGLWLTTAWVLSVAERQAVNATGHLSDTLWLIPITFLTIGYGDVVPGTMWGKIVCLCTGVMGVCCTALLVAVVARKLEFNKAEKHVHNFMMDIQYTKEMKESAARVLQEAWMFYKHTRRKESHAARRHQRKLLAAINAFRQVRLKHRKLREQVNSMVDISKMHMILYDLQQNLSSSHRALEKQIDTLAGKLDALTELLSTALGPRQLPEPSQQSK
T1 sequence (Q09470 whole entry): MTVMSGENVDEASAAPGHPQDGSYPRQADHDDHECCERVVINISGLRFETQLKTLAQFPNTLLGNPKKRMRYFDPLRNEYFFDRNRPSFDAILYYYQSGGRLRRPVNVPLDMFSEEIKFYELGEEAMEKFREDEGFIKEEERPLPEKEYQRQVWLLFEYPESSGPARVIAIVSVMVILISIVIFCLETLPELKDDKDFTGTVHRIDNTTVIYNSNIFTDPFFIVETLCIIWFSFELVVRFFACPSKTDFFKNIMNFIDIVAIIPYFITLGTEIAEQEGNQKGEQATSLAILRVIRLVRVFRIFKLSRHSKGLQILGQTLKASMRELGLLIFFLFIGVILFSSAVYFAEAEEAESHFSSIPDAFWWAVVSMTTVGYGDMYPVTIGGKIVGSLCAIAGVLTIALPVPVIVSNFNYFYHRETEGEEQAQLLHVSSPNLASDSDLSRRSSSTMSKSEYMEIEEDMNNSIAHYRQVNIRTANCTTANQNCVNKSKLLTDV

Compound: CC[C@H](C)[C@H](N)C(=O)N[C@@H](Cc1ccccc1)C(=O)N[C@H](C(=O)N[C@@H](CC(N)=O)C(=O)N[C@H](C(=O)N[C@@H](CCCCN)C(=O)N[C@H]1CSSC[C@@H]2NC(=O)[C@H](CCCCN)NC(=O)CNC(=O)CNC(=O)[C@H](C)NC(=O)[C@H](Cc3c[nH]cn3)NC(=O)[C@H](CCC(N)=O)NC(=O)CNC(=O)[C@H](Cc3ccccc3)NC(=O)[C@H](CCCNC(=N)N)NC(=O)[C@H](CC(=O)O)NC(=O)[C@H](CCCCN)NC(=O)[C@@H]3CSSC[C@@H](C(=O)N[C@@H](Cc4ccc(O)cc4)C(=O)N4CCC[C@H]4C(=O)O)NC(=O)[C@H](CCCCN)NC(=O)[C@H](CSSC[C@H](NC(=O)[C@H](CCC(N)=O)NC(=O)[C@H](CCC(N)=O)NC(=O)[C@@H]4CCCN4C(=O)[C@H](CC(C)C)NC(=O)[C@H](CC(=O)O)NC1=O)C(=O)N[C@@H](CC(C)C)C(=O)N[C@@H](CCCNC(=N)N)C(=O)N1CCC[C@H]1C(=O)N3)NC(=O)[C@H](CCCCN)NC(=O)CNC(=O)[C@H](CC(N)=O)NC(=O)[C@H]([C@@H](C)CC)NC2=O)C(C)C)[C@@H](C)CC [Cvill6] (H-IFINVKCDLPQQCLRPCKDRFGQHAGGKCINGKCKCYP-OH; disulfide 7-29, 13-34, 17-36 (inferred); N-terminus and C-terminus assumed)
- effect on hKv1.5 current (hKv1.5): no change in current amplitudes
- effect on hKv1.1 current (hKv1.1): no change in current amplitudes
- effect on hKv11.1 (hERG1) current (hKv11.1 (hERG1)): no change in current amplitudes
- reversibility of KCa3.1 inhibition (hKCa3.1 (IKCa1, SK4); 100 nM, then toxin-free solution): inhibit the KCa3.1 channel reversibly with quick association and dissociation kinetics
- time to steady-state block of KCa3.1 (hKCa3.1 (IKCa1, SK4); 100 nM, 5–6 consecutive traces, n = 5): ~ 1 min
- reduction of KCa3.1 current (hKCa3.1 (IKCa1, SK4); 100 nM, representative record): ~ 40%
- inhibition at 0.1 µM (hKCa3.1 (IKCa1, SK4); CHO, 100 nM, read-out: inhibition of KCa3.1 current): ~27%
- potency estimated from few doses (hKCa3.1 (IKCa1, SK4); CHO, KCa3.1, estimated from a single concentration (100 nM), bimolecular 1:1 interaction, read-out: estimated IC50): ~268 nM
- remaining current fraction (RCF, I/I0) (hKCa3.1 (IKCa1, SK4); KCa3.1, 100 nM, mean ± SEM, n = 5): 0.73 ± 0.05
- affinity for KCa3.1 relative to Cvill7 (hKCa3.1 (IKCa1, SK4); estimated IC50 comparison): two-fold higher affinity
- time to recovery from KCa3.1 block (hKCa3.1 (IKCa1, SK4); toxin-lacking solution after 100 nM, n = 5): ~ 0.8 min
- effect on KCa2.2 current (hKCa2.2 (SK2)): Neither Cvill6 nor Cvill7 showed any effect
- IC50 (hKv1.2): 3.9 ± 0.27 nM
- steady-state block of Kv1.2 (hKv1.2; 100 nM, n = 5): 97 ± 1.2%
- inhibition at 0.001 µM (hKv1.2; CHO, representative record, read-out: inhibition of hKv1.2 current): ~28%
- inhibition at 0.001 µM (hKv1.2; CHO, screening summary (Figure 3G), read-out: inhibition of hKv1.2 currents): ~16%
- koff (hKv1.2; CHO, Kv1.2, calculated from τoff, 100 pM Cvill7 (n = 4) or 100 nM Cvill6 (n = 5)): 0.00091 s⁻¹
- kon (hKv1.2; CHO, Kv1.2, calculated from τon and τoff, 100 pM Cvill7 (n = 4) or 100 nM Cvill6 (n = 5)): 290000 M⁻¹ s⁻¹
- times less potency for Kv1.2 than Cvill7 (hKv1.2; IC50 comparison): 244 times
- selectivity for Kv1.2 over Kv1.3 (hKv1.2; IC50 ratio): ~ 215 fold
- τon (development of block) (hKv1.2; Kv1.2, 100 nM, mean ± SEM, n = 5): 35 ± 2.7 s
- τon, representative fit (hKv1.2; Kv1.2, 100 nM, representative fit (Figure S5C)): 38.7 s
- Hill coefficient (H) (hKv1.2; Kv1.2, Hill equation fit of RCF values): 1.4
- τoff (wash-out) (hKv1.2; Kv1.2, after 100 nM, mean ± SEM, n = 5): 1287 ± 259 s
- τoff, representative fit (hKv1.2; Kv1.2, after 100 nM, representative fit (Figure S5C)): 776.4 s
- Kd (hKv1.2; Kv1.2, koff/kon ratio, 100 nM, read-out: dissociation constant (Kd), koff/kon): 3.3 nM
- mode of block (hKv1.2; inferred from Hill coefficients close to 1 and single-exponential kinetics): pore blockers that interact with channels with 1:1 stoichiometry in a bimolecular interaction
- recovery of Kv1.2 current, up to % of initial current (hKv1.2; toxin-free solution after 100 nM): up to 65%
- reversibility of Kv1.2 block (hKv1.2; wash-out with toxin-free solution): reversible but with very slow dissociation kinetics
